“And” between values parts separate entries of the source, which are not always exact repeats. Identical values can stand only once.
Experiments:
[1] = MTT cytotoxicity in combination with micelles; assay type: cell-based; conditions: dog, MDCKII wildtype and hNPC1L1/MDCKII cells, Figure S2, read-out: LC50 in combination with micelles
Procedure: (§1) MDCKII, hNPC1L1/MDCKII, and HepG2 cells were seeded in 96-well microtiter plates on day 0 at densities of 3000 cells/well. On day 1, tested compounds (73 mM stock solution in DMSO) were added in five consecutive 10-fold dilutions (10^−8 to 10^−4 mol/L) and incubated for 72 h. Cytotoxicity of the compounds was assessed on day 4 by the MTT cell proliferation assay (Sigma–Aldrich, Germany) which detects mitochondrial dehydrogenase activity in viable cells. The results are expressed as LC50 and the values for each compound were calculated from dose–response curves using linear regression analysis. Each concentration was tested in quadruplicate in three independent experiments. Toxicity of the compounds in combination with micelles was also tested using the same method. MDCKII and hNPC1L1/MDCKII were seeded in 96-well microtiter plates (150 μL medium/well) at a density of 2 × 10^5 cells/mL medium 24 h before the experiment. Micelles were prepared according to the modified method reported by Field et al.. In brief, 0.25 mM oleic acid, 50 μM cholesterol, 10 μM compactin, 50 μM mevalonate, 5 mM Na-taurocholate (Sigma–Aldrich, Germany) in DMEM/10% FCS were mixed and sonicated. Following the micellar formation, compounds 1, 5, 6, and 5/6 (70:30) (73 mM stock solution in DMSO) were added to the medium and vortexed to obtain the final concentrations of the compounds (25, 50, 100, 150, 200 μM) and applied to the cells for 1 h. Thereafter, cytotoxicity was determined using the MTT assay.
Figure S2. In vitro cytotoxicity of the compounds 5, 6, and 5/6 (70:30) in combination with micelles. Cytotoxicity of the newly synthesized compounds was determined in (A) MDCKII wildtype and (B) hNPC1L1/MDCKII cells. The cells were incubated with the indicated concentrations of the compounds in Medium B (0.25 mM oleic acid, 50 μM free cholesterol, 10 μM compactin, 50 μM mevalonate, 5 mM Na-taurocholate in DMEM supplemented with 5% LPDS) for 1 h. The results are expressed as percentage of the survival of cells treated with the compound compared to untreated cells. Data represent mean ± S.E.M. of three independent experiments.

[2] = MTT cytotoxicity assay in HepG2 cells; assay type: cell-based; conditions: human, read-out: LC50, HepG2
Procedure: (§2) Cytotoxicity of amino alcohols 5, 6 and their diastereoisomeric mixture 5/6 was analyzed using MTT cell proliferation assay and the LC50 values were determined in MDCKII wild type, hNPC1L1/MDCKII, and HepG2 cells (Table 2). MDCKII cells stably expressing human Niemann-Pick C1-like protein 1 (hNPC1L1/MDCKII) (Figure S1) are a pharmacologically validated system for investigating NPC1L1-mediated cholesterol uptake. The LC50 values were higher than 100 μM and considered nontoxic in all three cell lines. […] In addition, we tested the in vitro cytotoxicity of ezetimibe 1 and compounds 5, 6, and 5/6 (70:30) in combination with micelles and found all LC50 values to be above 100 μM (Figure S2).
(§3) Madin–Darby Canine Kidney II (MDCKII) cells, MDCKII cells stably expressing human NPC1L1 (hNPC1L1/MDCKII), and human HepG2 liver cells were maintained in DMEM (Dulbecco's Modified Eagle Medium, Invitrogen, USA) containing 100 units/mL penicillin and 100 μg/mL streptomycin supplemented with 10% FCS (Sigma–Aldrich, Germany). The cells were grown at 37 °C in a humidified 5% CO2 incubator. Stable transfection of MDCKII cells with human NPC1L1 protein was performed using Lipofectamine LTX (Invitrogen, USA) according to the manufacturer's protocol. Selection with 1 mg/mL G418 (Sigma–Aldrich, Germany) was started 2 days after transfection. The concentration of G418 was decreased to 500 μg/mL after 14 days. Stably transfected cells were maintained in DMEM containing 100 units/mL penicillin and 100 μg/mL streptomycin supplemented with 10% FCS and 500 μg/mL G418.
as §1, with “Following the micellar formation, compounds 1, 5, 6, and 5/6 (70:30) (73 mM stock solution in DMSO) were added to the medium and vortexed to obtain the final concentrations of the compounds (25, 50, 100, 150, 200 μM) and applied to the cells for 1 h.” left out

[3] = MTT cytotoxicity assay in MDCKII wild type cells; assay type: cell-based; conditions: dog, MDCKII wild type cells, read-out: LC50, MDCKII
Procedure: as §2, §3, §1

[4] = tested on: cholesterol absorption; experiment: In vivo acute cholesterol absorption; design: species or system C57BL/6 mice; conditions: mice; for In vivo inhibition (%) of cholesterol absorption, Duodenum / In vivo inhibition (%) of cholesterol absorption, Ileum / In vivo inhibition (%) of cholesterol absorption, Jejunum / In vivo inhibition (%) of cholesterol absorption, Liver / In vivo inhibition (%) of cholesterol absorption, Plasma: [3H]cholesterol reduction relative to vehicle
Procedure: In vivo, we first determined the consequences of ezetimibe 1 and amino alcohols 5 and 6 on cholesterol absorption. We therefore gavaged mice with 2 μCi [^3H]cholesterol and 10 mg/kg/day of each compound or vehicle, and radioactivity was measured in plasma, liver, and three equal parts of the intestine (duodenum, jejunum, ileum). Percentage of [^3H]cholesterol reduction is presented relative to vehicle, respectively. […] We therefore increased the dose to 20 mg/kg/day and determined inhibition of cholesterol absorption. The inhibition in duodenum and jejunum was similar to the lower dose, whereas in ileum it raised from 21% to 41% (Table 3). Decreased cholesterol absorption of 5 in the small intestine compared to ezetimibe 1 might be explained by the fact that 2-azetidinones are moderate acyl-coenzyme A:cholesterol acyltransferase inhibitors and their level of activity is highly structure-dependent. It might therefore be speculated that acyl-coenzyme A:cholesterol acyltransferase activity of amino alcohols 5 and 6 and their diastereoisomeric mixtures is altered compared to ezetimibe 1.
Male C57BL/6 mice aged 25–28 weeks were maintained under a 12 h light/12 h dark cycle in a temperature-controlled environment with free access to chow diet (Ssniff, Germany) and water. For 2 days, mice (n = 3–5) were fasted for 4 h and gavaged with corn oil (100 μl) (vehicle) containing ezetimibe 1 (10 mg/kg/day) or compounds 5, 6, and 5/6 (70:30) (10 or 20 mg/kg/day). On day 2, 90 min post vehicle or compound treatment, mice were gavaged with corn oil (200 μl) containing [^3H]cholesterol (2 μCi) ([1,2–3H(N)] cholesterol, 1 mCi/mL, ARC Inc., St. Louis, USA). Plasma, liver, and small intestines were collected 4 h post-gavage. Cholesterol uptake and absorption were determined as previously described.

[5] = gavage 10 mg/kg/day for 2 days, 10 mg/kg/day

| SMILES | CC50 at 1 h [1] | CC50 at 72 h [2] | CC50 at 72 h [3] | In vivo inhibition (%) of cholesterol absorption, Duodenum ([4]; gavage 20 mg/kg/day for 2 days) | In vivo inhibition (%) of cholesterol absorption, Ileum ([4]; gavage 20 mg/kg/day for 2 days) | In vivo inhibition (%) of cholesterol absorption, Jejunum ([4]; gavage 20 mg/kg/day for 2 days) | In vivo inhibition (%) of cholesterol absorption, Liver ([4]; gavage 20 mg/kg/day for 2 days) | In vivo inhibition (%) of cholesterol absorption, Plasma ([4]; gavage 20 mg/kg/day for 2 days) | CC50 at 96 h ([2]; 72 h) | In vivo inhibition (%) of cholesterol absorption, Duodenum ([4]; gavage 10 mg/kg/day for 2 days) | In vivo inhibition (%) of cholesterol absorption, Ileum ([4]; gavage 10 mg/kg/day for 2 days) | In vivo inhibition (%) of cholesterol absorption, Jejunum ([4]; gavage 10 mg/kg/day for 2 days) | In vivo inhibition (%) of cholesterol absorption, Liver ([4]; gavage 10 mg/kg/day for 2 days) | In vivo inhibition (%) of cholesterol absorption, Plasma ([4]; gavage 10 mg/kg/day for 2 days) | reduction of radioactivity in the small intestine ([4]; 10 mg/kg/day, small intestine overall, not statistically significant) | In vivo inhibition (%) of cholesterol absorption, Ileum [4, 5] | In vivo inhibition (%) of cholesterol absorption, Liver [4, 5] | In vivo inhibition (%) of cholesterol absorption, Plasma [4, 5] | In vivo inhibition (%) of cholesterol absorption, Ileum ([4]; gavage 20 mg/kg/day for 2 days, 20 mg/kg/day) | inhibition of [3H]cholesterol in the ileum ([4]; span over the 10 and 20 mg/kg/day groups) |
| --- | --- | --- | --- | --- | --- | --- | --- | --- | --- | --- | --- | --- | --- | --- | --- | --- | --- | --- | --- | --- |
| O=C1[C@H](NCC(O)c2ccc(F)cc2)[C@@H](c2ccc(O)cc2)N1c1ccc(F)cc1 (mixture of isomers) [5/6 (70:30), (3R,4R)-3-[(2R/S)-2-(4-fluorophenyl)-2-hydroxyethylamino]-1-(4-fluorophenyl)-4-(4-hydroxyphenyl)azetidin-2-one] | > 100 µM | > 100 µM | > 100 µM | 49 ± 7 % | 41 ± 21% | 48 ± 9 % | 70 ± 5 % | 64 ± 7 % | – | – | – | – | – | – | – | – | – | – | – | – |
| O=C1[C@H](CC[C@H](O)c2ccc(F)cc2)[C@@H](c2ccc(O)cc2)N1c1ccc(F)cc1 [Compound 1, ezetimibe, reference compound] | > 100 µM | – | > 100 µM | – | – | – | – | – | 69.7 µM | 65 ± 1 % | 47 ± 3 % | 61 ± 2 % | 52 ± 3 % | 60 ± 6 % | – | – | – | – | – | – |
| O=C1[C@H](NC[C@H](O)c2ccc(F)cc2)[C@@H](c2ccc(O)cc2)N1c1ccc(F)cc1 [Compound 5] | > 100 µM | > 100 µM | > 100 µM | 18 ± 14% | – | 19 ± 16% | 33 ± 6 % | 52 ± 7 % | – | 23 ± 18% | – | 23 ± 13% | – | – | ~22% | 21% and 21 ± 20% | 44% and 44 ± 6 % | 50% and 50 ± 8 % | 41% and 41 ± 12 % | – |
| O=C1[C@H](NC[C@@H](O)c2ccc(F)cc2)[C@@H](c2ccc(O)cc2)N1c1ccc(F)cc1 [Compound 6, (3R,4R)-3-[(2S)-2-(4-fluorophenyl)-2-hydroxyethylamino]-1-(4-fluorophenyl)-4-(4-hydroxyphenyl)azetidin-2-one] | > 100 µM | > 100 µM | > 100 µM | 35 ± 9 % | 60 ± 9 % | 26 ± 8% | 49 ± 10 % | 38 ± 11 % | – | 43 ± 11 % | 58 ± 8 % | 37 ± 11 % | – | – | – | – | 47% and 47 ± 0 % | 32% and 32 ± 5 % | – | 58–60% |

From paper PMC4237514, “Novel amino-β-lactam derivatives as potent cholesterol absorption inhibitors” (European Journal of Medicinal Chemistry, 2014)
